In US20050180935A1, “Deodorant cosmetic composition comprising a combination of zinc gluconate and an antiperspirant aluminum salt” (priority 2003, published 2005):

Assay: deodorant efficacy test: odor intensity of incubated sweat rated by expert panel
Set-up: species or system human
Details: 24 h at 37° C, vs control sweat sample
Method: Collections of underarm sweat were taken in a sauna from 6 volunteers; the samples of individual sweat were stored in ice for a few hours and were initially almost odorless. They were mixed together and divided into 1 ml aliquots. The active agents were added to the aliquots, which were then incubated in an oven at 37° C. After incubation for 24 hours, a panel of experts evaluated the intensity of the odor in comparison with a control sample: 1 ml of sweat incubated without an active agent. The intensity was evaluated on a scale ranging from 0 (no odor) to 4 (very strong odor).
The results below are expressed as a percentage of variation of the intensity of the odor in comparison with the control sweat sample (mean of the percentages of variation at T24h).

With zinc gluconate [(A)] the “% of reduction in the intensity of the odor” value (from here on “% of reduction”) (0.5 mg AM/ml of sweat) was −19%.
With `Oc1cc(Cl)ccc1Oc1ccc(Cl)cc1Cl` [(B), 2,4,4′-trichloro-2′-hydroxydiphenyl ether] the “% of reduction” value (0.4 mg AM/ml of sweat) was −49%.
In the case of aluminum chlorohydrate [ACH], the “% of reduction” value (0.1 mg AM/ml of sweat) is reported as −37%.
For zinc ricinoleate [(C)], the “% of reduction” value (0.3 mg AM/ml of sweat) was −4%.
